From publication PMC11926788, “Effect of SSR504734, a Selective Glycine Transporter Type 1 Inhibitor, on Seizure Thresholds, Neurotransmitter Levels, and Inflammatory Markers in Mice” (ACS Chemical Neuroscience, 2025)
Counter-ions that a name gives are not always drawn.

Tests used:
[1] = test system: 6 Hz-induced psychomotor seizures in mice; experiment: 6 Hz-induced psychomotor seizure threshold test; format: in vivo; conditions: SSR504734 any of the doses tested, VPA 150 mg/kg
Description: Psychomotor seizures were induced through the application of rectangular pulses (0.2 ms width; 6 pulses per second) for 3 s using a Grass model CCU1 constant current unit coupled to a Grass S48 stimulator (Grass Technologies, Warwick, RI, USA). Stimuli were delivered via saline-soaked transcorneal electrodes. An ocular anesthetic (1% tetracaine hydrochloride) was administered on the animal’s corneas. Mice were restrained manually during stimulation and placed in transparent box immediately for behavioral observation. 6 Hz-induced seizures were characterized by head-nodding, chewing, eye-blinking, twitching of the vibrissae, rearing, stunned posture, forelimb clonus, and Straub tail. The absence of the described features or the return to normal exploratory behavior within 20 s poststimulation was considered as the absence of seizures. The 6 Hz seizure threshold test were conducted on groups of 20 animals stimulated with different current intensities by using the “up-and-down” method described by Kimball et al.[28]
The seizure threshold was quantified as the median current strength (CS50 value with confidence limits for 95% probability), predicting the induction of psychomotor seizures in 50% of the tested animals.

[2] = test system: neuroblastoma SH-SY5Y cells; experiment: Neurotoxicity, SH-SY5Y cell viability; format: cell-based
Description: A series of in vitro ADME-Tox tests were performed for SSR504734 in order to estimate its drugability. The ADME-Tox parameters including permeability, plasma protein binding, metabolic stability, neurotoxicity, and hepatotoxicity were carried out as described previously.[31],[32] The ability of SSR504734 to penetrate through the biological membrane by passive diffusion was estimated by the Gentest Precoated PAMPA Plate System (Corning, Tewksbury, MA) and expressed as the permeability coefficient (Pe). The protein binding analysis was performed by using the commercial TRANSIL^XL PPB test, which mimics in vitro physiological plasma conditions where human serum albumin (HAS) and alpha-1-acid glycoprotein AGP are present in a 24:1 ratio. The human metabolism of SSR504734 was studied using human liver microsomes (HLMs) provided by Sigma-Aldrich. The hepatotoxicity and neurotoxicity were estimated in cellular models with the use of hepatoma HepG2 and neuroblastoma SH-SY5Y cell lines to perform the preliminary safety tests. The cells were incubated with SSR504734 at the concentration range of 0.1–100 μM. 1 μM cytostatic drug doxorubicin (DX) was used as the reference.
Figure 8 Effect of cytostatic drug doxorubicin (DX) and SSR504734 on (A) hepatoma HepG2 and (B) neuroblastoma SH-SY5Y cell lines viability after 72 h of incubation at 37 °C, 5% CO2. Data are expressed as means ± SD. Statistical analysis: ****p < 0.0001 vs negative control −1% DMSO in growth media (one-way ANOVA, followed by Dunnett’s post hoc test).
Figure S8. The effect of cytostatic drug doxorubicin and SSR504734 on (A) hepatoma
HepG2 and (B) neuroblastoma SH-SY5Y cell line viability after 72 h of incubation at 37 °C,
5% CO2. The IC50 values were calculated by GraphPad Prism 8.0.
(1 picture or pasted object on this page, not shown here)

In the case of `O=C(NC(c1ccccc1)C1CCCCN1)c1cccc(C(F)(F)F)c1Cl` [SSR504734, 2-chloro-N-[(S)-phenyl[(2S)-piperidin-2-yl]methyl]-3-trifluoromethyl benzamide monohydrochloride], the “effect on current intensity necessary to induce psychomotor seizures” value ([1]; 14-day administration i.p.) is reported as “no statistically significant effect”, the “effect on current intensity necessary to induce psychomotor seizures” value ([1]; single administration i.p.) is reported as “no statistically significant effect” and the “completely safe dose in the SH-SY5Y model” value ([2]; 72 h) is reported as 25 µM. The IC50 ([2]; Homo sapiens, SH-SY5Y, 72 h of incubation) was 38.1 µM.
